Tested on: MV-4-11 cells
Test: Gene expression microarray analysis (Affymetrix PrimeView) and GSEA
Assay type: cell-based, human
Set-up: RFU PODN (11730768_x_at) / Fold change /veh PODN (11730768_x_at) / RFU LINC00158 (11744669_a_at) / Fold change /veh LINC00158 (11744669_a_at) / RFU DUSP10 (11751237_a_at) / Fold change /veh DUSP10 (11751237_a_at) / RFU ID3 (11757404_x_at) / Fold change /veh ID3 (11757404_x_at) / RFU PLEKHG5 (11737974_s_at) / Fold change /veh PLEKHG5 (11737974_s_at) / RFU LRRC4B (11730491_at) / Fold change /veh LRRC4B (11730491_at) / RFU GIMAP4 (11747438_a_at) / Fold change /veh GIMAP4 (11747438_a_at) / RFU KRT8 (11758183_x_at) / Fold change /veh KRT8 (11758183_x_at) / RFU CNN1 (11734310_a_at) / Fold change /veh CNN1 (11734310_a_at) / RFU VPS37D (11726825_at) / Fold change /veh VPS37D (11726825_at) / RFU C10orf10 (11716522_x_at) / Fold change /veh C10orf10 (11716522_x_at) / RFU KIR2DL2 /// KIR2DL4 /// KIR2DL5A /// KIR2DL5B /// KIR2DS1 /// KIR2DS2 /// KIR2DS3 /// KIR2DS4 /// KIR3DL3 /// KIR3DL3 /// KIR3DS1 (11738374_at) / Fold change /veh KIR2DL2 /// KIR2DL4 /// KIR2DL5A /// KIR2DL5B /// KIR2DS1 /// KIR2DS2 /// KIR2DS3 /// KIR2DS4 /// KIR3DL3 /// KIR3DL3 /// KIR3DS1 (11738374_at) / RFU C1QL1 (11718748_at) / Fold change /veh C1QL1 (11718748_at) / RFU TMPRSS4 (11747572_a_at) / Fold change /veh TMPRSS4 (11747572_a_at) / RFU HAMP (11756126_x_at) / Fold change /veh HAMP (11756126_x_at) / RFU RNFT2 (11725882_a_at) / Fold change /veh RNFT2 (11725882_a_at) / RFU NR4A2 (11747474_a_at) / Fold change /veh NR4A2 (11747474_a_at) / RFU ABCC12 (11746883_a_at) / Fold change /veh ABCC12 (11746883_a_at) / RFU TMEM136 (11760407_x_at) / Fold change /veh TMEM136 (11760407_x_at) / RFU CLDN22 /// WWC2 (11732394_at) / Fold change /veh CLDN22 /// WWC2 (11732394_at) / RFU HLA-DPB1 (11760878_x_at) / Fold change /veh HLA-DPB1 (11760878_x_at) / RFU SPINT1 (11716480_a_at) / Fold change /veh SPINT1 (11716480_a_at) / RFU GAP43 (11754022_s_at) / Fold change /veh GAP43 (11754022_s_at) / RFU A4GNT (11735810_at) / Fold change /veh A4GNT (11735810_at) / RFU PRB3 (11715151_x_at) / Fold change /veh PRB3 (11715151_x_at) / RFU TUBB4B (11761932_at) / Fold change /veh TUBB4B (11761932_at) / RFU CAPN14 (11732068_a_at) / Fold change /veh CAPN14 (11732068_a_at) / RFU TMCC2 (11721928_a_at) / Fold change /veh TMCC2 (11721928_a_at) / RFU IRGQ (11745062_a_at) / Fold change /veh IRGQ (11745062_a_at) / RFU FAM174B (11720279_a_at) / Fold change /veh FAM174B (11720279_a_at) / RFU TMPRSS4 (11748680_a_at) / Fold change /veh TMPRSS4 (11748680_a_at) / RFU FAM212B (11763350_a_at) / Fold change /veh FAM212B (11763350_a_at) / RFU PLEKHG5 (11743358_a_at) / Fold change /veh PLEKHG5 (11743358_a_at) / RFU ZSCAN30 (11745921_a_at) / Fold change /veh ZSCAN30 (11745921_a_at) / RFU CMKLR1 (11741424_a_at) / Fold change /veh CMKLR1 (11741424_a_at) / RFU LOC101060620 /// MAPK8IP1 (11723275_at) / Fold change /veh LOC101060620 /// MAPK8IP1 (11723275_at) / RFU SPTSSB (11747773_x_at) / Fold change /veh SPTSSB (11747773_x_at) / RFU PRSS12 (11739890_at) / Fold change /veh PRSS12 (11739890_at) / RFU BIN1 (11741810_x_at) / Fold change /veh BIN1 (11741810_x_at) / RFU WNT11 (11732464_a_at) / Fold change /veh WNT11 (11732464_a_at) / RFU C10orf10 (11716521_a_at) / Fold change /veh C10orf10 (11716521_a_at) / RFU C5orf56 (11738089_at) / Fold change /veh C5orf56 (11738089_at) / RFU CYB561 (11721691_x_at) / Fold change /veh CYB561 (11721691_x_at) / RFU ANKRD19P (11752326_a_at) / Fold change /veh ANKRD19P (11752326_a_at) / RFU OR2T12 /// OR2T33 /// OR2T8 (11738714_s_at) / Fold change /veh OR2T12 /// OR2T33 /// OR2T8 (11738714_s_at) / RFU VCAN (11748164_a_at) / Fold change /veh VCAN (11748164_a_at) / RFU JSRP1 (11732532_at) / Fold change /veh JSRP1 (11732532_at) / RFU KRTAP10-11 (11738290_x_at) / Fold change /veh KRTAP10-11 (11738290_x_at) / RFU MYO3A (11730013_a_at) / Fold change /veh MYO3A (11730013_a_at) / RFU EBF3 (11725865_a_at) / Fold change /veh EBF3 (11725865_a_at) / RFU CAMK2N1 (11719241_x_at) / Fold change /veh CAMK2N1 (11719241_x_at) / RFU C5orf56 (11738088_a_at) / Fold change /veh C5orf56 (11738088_a_at) / RFU OLFML3 (11715873_a_at) / Fold change /veh OLFML3 (11715873_a_at) / RFU LOC100653217 /// NTM (11731650_a_at) / Fold change /veh LOC100653217 /// NTM (11731650_a_at) / RFU MAPK11 (11762145_a_at) / Fold change /veh MAPK11 (11762145_a_at) / RFU FIZ1 (11724087_x_at) / Fold change /veh FIZ1 (11724087_x_at) / RFU OASL (11726364_x_at) / Fold change /veh OASL (11726364_x_at) / RFU SOX15 (11748057_x_at) / Fold change /veh SOX15 (11748057_x_at) / RFU CD79A (11719716_a_at) / Fold change /veh CD79A (11719716_a_at) / RFU HIST1H1D (11736915_at) / Fold change /veh HIST1H1D (11736915_at) / RFU CASKIN2 (11723855_a_at) / Fold change /veh CASKIN2 (11723855_a_at) / RFU LOC730098 (11760151_x_at) / Fold change /veh LOC730098 (11760151_x_at) / RFU OR4N2 (11742367_at) / Fold change /veh OR4N2 (11742367_at) / RFU PRRT2 (11749266_a_at) / Fold change /veh PRRT2 (11749266_a_at) / RFU SNX32 (11753110_a_at) / Fold change /veh SNX32 (11753110_a_at) / RFU CDHR5 (11726645_a_at) / Fold change /veh CDHR5 (11726645_a_at) / RFU RCAN1 (11760418_a_at) / Fold change /veh RCAN1 (11760418_a_at) / RFU FAM167A (11723789_a_at) / Fold change /veh FAM167A (11723789_a_at) / RFU FAM26E (11764081_at) / Fold change /veh FAM26E (11764081_at) / RFU ISYNA1 (11749810_s_at) / Fold change /veh ISYNA1 (11749810_s_at) / RFU ACY1 (11761880_at) / Fold change /veh ACY1 (11761880_at) / RFU 11764098_at / Fold change /veh 11764098_at / RFU SAMD14 (11745864_x_at) / Fold change /veh SAMD14 (11745864_x_at) / RFU NPB (11741838_a_at) / Fold change /veh NPB (11741838_a_at) / RFU TMPRSS6 (11731388_a_at) / Fold change /veh TMPRSS6 (11731388_a_at) / RFU KRTAP10-2 (11738614_at) / Fold change /veh KRTAP10-2 (11738614_at) / RFU ARHGAP8 /// PRR5-ARHGAP8 (11727945_x_at) / Fold change /veh ARHGAP8 /// PRR5-ARHGAP8 (11727945_x_at) / RFU KRTAP5-7 /// NADSYN1 (11734609_at) / Fold change /veh KRTAP5-7 /// NADSYN1 (11734609_at) / RFU RASL12 (11751679_a_at) / Fold change /veh RASL12 (11751679_a_at) / RFU CDKN2B (11736163_a_at) / Fold change /veh CDKN2B (11736163_a_at) / RFU PRF1 (11729649_at) / Fold change /veh PRF1 (11729649_at) / RFU, ZNF638 /// ZNF638-IT1 / Fold change vs veh, ZNF638 /// ZNF638-IT1 / RFU, PANK3 / Fold change vs veh, PANK3 / RFU, SH3YL1 / Fold change vs veh, SH3YL1 / RFU, ZEB2 / Fold change vs veh, ZEB2 / RFU, NRIP1 / Fold change vs veh, NRIP1 / RFU, PTTG1IP / Fold change vs veh, PTTG1IP / RFU, CAPN2 / Fold change vs veh, CAPN2 / RFU, MED14 / Fold change vs veh, MED14 / RFU, SNORA58 / Fold change vs veh, SNORA58 / RFU, C1orf63 / Fold change vs veh, C1orf63 / RFU, LRRFIP1 / Fold change vs veh, LRRFIP1 / RFU, NDUFAF7 / Fold change vs veh, NDUFAF7 / RFU, SLC12A2 / Fold change vs veh, SLC12A2 / RFU, IBTK / Fold change vs veh, IBTK / RFU, ESF1 / Fold change vs veh, ESF1 / Fold change vs veh, TMEM50B / RFU, TAOK1 / Fold change vs veh, TAOK1 / RFU, ACBD3 / Fold change vs veh, ACBD3 / RFU, TMA16 / Fold change vs veh, TMA16 / RFU, RWDD3 / Fold change vs veh, RWDD3 / RFU, BCAT1 / Fold change vs veh, BCAT1 / RFU, EDEM3 / Fold change vs veh, EDEM3 / RFU, TMEM33 / Fold change vs veh, TMEM33 / RFU, WDR75 / Fold change vs veh, WDR75 / RFU, AHCTF1 / Fold change vs veh, AHCTF1 / RFU, TFRC / Fold change vs veh, TFRC / RFU, ZDHHC17 / Fold change vs veh, ZDHHC17 / RFU, NOM1 / Fold change vs veh, NOM1 / RFU, ARL8B / Fold change vs veh, ARL8B / RFU, ZBTB11 / Fold change vs veh, ZBTB11 / RFU, TAMM41 / Fold change vs veh, TAMM41 / RFU, KIAA1704 /// LOC100996395 / Fold change vs veh, KIAA1704 /// LOC100996395 / RFU, ING1 / Fold change vs veh, ING1 / RFU, TRMT61B / Fold change vs veh, TRMT61B / RFU, FUBP3 / Fold change vs veh, FUBP3 / RFU, TP53 / Fold change vs veh, TP53 / RFU, TNKS2 / Fold change vs veh, TNKS2 / RFU, ZFP14 / Fold change vs veh, ZFP14 / RFU, ACTR2 / Fold change vs veh, ACTR2 / RFU, PPP3R1 / Fold change vs veh, PPP3R1 / RFU, PIK3R1 / Fold change vs veh, PIK3R1 / RFU, HNRNPA1 / Fold change vs veh, HNRNPA1 / RFU, RNF170 / Fold change vs veh, RNF170 / RFU, ZNF28 / Fold change vs veh, ZNF28 / RFU, RNGTT / Fold change vs veh, RNGTT / RFU, OGT / Fold change vs veh, OGT / RFU, BRD1 / Fold change vs veh, BRD1 / RFU, MARS / Fold change vs veh, MARS / RFU, ZNF655 / Fold change vs veh, ZNF655 / RFU, FAHD1 / Fold change vs veh, FAHD1 / RFU, BDP1 / Fold change vs veh, BDP1 / RFU, LRRCC1 / Fold change vs veh, LRRCC1 / RFU, ARID1A / Fold change vs veh, ARID1A / RFU, ZNF146 / Fold change vs veh, ZNF146 / RFU, ZNF330 / Fold change vs veh, ZNF330 / RFU, GPN3 / Fold change vs veh, GPN3 / RFU, C9orf123 / Fold change vs veh, C9orf123 / RFU, N4BP2L2 / Fold change vs veh, N4BP2L2 / RFU, ARFIP1 / Fold change vs veh, ARFIP1 / RFU, FAM179B / Fold change vs veh, FAM179B / RFU, BCL10 / Fold change vs veh, BCL10 / RFU, UHRF1BP1L / Fold change vs veh, UHRF1BP1L / RFU, BET1 / Fold change vs veh, BET1 / RFU, CNOT2 / Fold change vs veh, CNOT2 / RFU, ZNF268 / Fold change vs veh, ZNF268 / Fold change vs veh, ZNF507 / RFU, DGCR2 / Fold change vs veh, DGCR2 / RFU, WDSUB1 / Fold change vs veh, WDSUB1 / Fold change vs veh, HSP90B1 /// MIR3652 / RFU, ADSS / Fold change vs veh, ADSS / RFU, GK / Fold change vs veh, GK / RFU, ZNF148 / Fold change vs veh, ZNF148 / RFU, TAF9 / Fold change vs veh, TAF9 / RFU, SLC1A5 / Fold change vs veh, SLC1A5 / RFU, SLMO2 / Fold change vs veh, SLMO2 / RFU, ABCC4 / Fold change vs veh, ABCC4 / RFU, LOC101060439 /// RAP1B / Fold change vs veh, LOC101060439 /// RAP1B / RFU, RFX7 / Fold change vs veh, RFX7 / RFU, GTPBP10 / Fold change vs veh, GTPBP10 / RFU, CNEP1R1 / Fold change vs veh, CNEP1R1 / RFU, BIVM-ERCC5 /// ERCC5 / Fold change vs veh, BIVM-ERCC5 /// ERCC5 / RFU, ILF3 / Fold change vs veh, ILF3 / RFU 11762660_at / Fold change /veh 11762660_at / RFU VCAN (11757783_s_at) / Fold change /veh VCAN (11757783_s_at) / RFU DDX43 (11728927_at) / Fold change /veh DDX43 (11728927_at) / RFU KRT8 (11758188_x_at) / Fold change /veh KRT8 (11758188_x_at) / RFU NKD1 (11759106_at) / Fold change /veh NKD1 (11759106_at) / RFU SRD5A1 (11742802_a_at) / Fold change /veh SRD5A1 (11742802_a_at) / RFU TPSAB1 /// TPSB2 (11721975_s_at) / Fold change /veh TPSAB1 /// TPSB2 (11721975_s_at) / RFU GSTM3 (11746129_a_at) / Fold change /veh GSTM3 (11746129_a_at) / RFU IL23R (11737362_x_at) / Fold change /veh IL23R (11737362_x_at) / RFU TMEM51 (11727254_a_at) / Fold change /veh TMEM51 (11727254_a_at) / RFU PIWIL2 (11732686_x_at) / Fold change /veh PIWIL2 (11732686_x_at) / RFU ORM1 (11744905_x_at) / Fold change /veh ORM1 (11744905_x_at) / RFU CCDC152 (11743942_at) / Fold change /veh CCDC152 (11743942_at) / RFU ECM1 (11717891_a_at) / Fold change /veh ECM1 (11717891_a_at) / RFU IL23R (11748794_a_at) / Fold change /veh IL23R (11748794_a_at) / RFU TNFAIP8L3 (11732012_x_at) / Fold change /veh TNFAIP8L3 (11732012_x_at) / RFU MBOAT4 (11741988_at) / Fold change /veh MBOAT4 (11741988_at) / RFU 11764193_at / Fold change /veh 11764193_at / RFU TMEM53 (11763286_at) / Fold change /veh TMEM53 (11763286_at) / RFU MAGEB2 (11727129_at) / Fold change /veh MAGEB2 (11727129_at) / RFU TMEM200A (11744735_a_at) / Fold change /veh TMEM200A (11744735_a_at) / RFU CCDC152 (11751479_a_at) / Fold change /veh CCDC152 (11751479_a_at) / RFU FAM211A (11726209_a_at) / Fold change /veh FAM211A (11726209_a_at) / RFU RGS16 (11746705_a_at) / Fold change /veh RGS16 (11746705_a_at) / RFU VCAN (11755009_s_at) / Fold change /veh VCAN (11755009_s_at) / RFU RHOB (11743442_s_at) / Fold change /veh RHOB (11743442_s_at) / RFU RGS16 (11720943_a_at) / Fold change /veh RGS16 (11720943_a_at) / RFU RGS16 (11720944_at) / Fold change /veh RGS16 (11720944_at) / RFU, VPS4B / Fold change vs veh, VPS4B / RFU, CREB1 / Fold change vs veh, CREB1 / RFU, DNAJC13 / Fold change vs veh, DNAJC13 / RFU, GNAQ / Fold change vs veh, GNAQ / RFU, CDK5R1 / Fold change vs veh, CDK5R1 / RFU, ZRANB3 / Fold change vs veh, ZRANB3 / RFU, CUL4A / Fold change vs veh, CUL4A / RFU, CCNY / Fold change vs veh, CCNY / RFU, UFL1 / Fold change vs veh, UFL1 / RFU, COG3 / Fold change vs veh, COG3 / RFU, DIAPH2 / Fold change vs veh, DIAPH2 / RFU, SKA2 / Fold change vs veh, SKA2 / RFU, AFF3 / Fold change vs veh, AFF3 / RFU, LMF1 / Fold change vs veh, LMF1 / RFU, IPO11 / Fold change vs veh, IPO11 / RFU, DFFB / Fold change vs veh, DFFB / RFU, FOXP1 / Fold change vs veh, FOXP1 / RFU, CARD8 / Fold change vs veh, CARD8 / RFU, STRN3 / Fold change vs veh, STRN3 / RFU, ADK / Fold change vs veh, ADK / RFU, RASSF2 / Fold change vs veh, RASSF2 / RFU, WIPF1 / Fold change vs veh, WIPF1 / RFU, LARP1B / Fold change vs veh, LARP1B / RFU, RASA1 / Fold change vs veh, RASA1 / RFU, RB1 / Fold change vs veh, RB1 / RFU, PPFIA1 / Fold change vs veh, PPFIA1 / RFU, MAT2A / Fold change vs veh, MAT2A / RFU, CCT5 / Fold change vs veh, CCT5 / RFU, WDR92 / Fold change vs veh, WDR92 / RFU, CUX1 / Fold change vs veh, CUX1 / RFU, TTC7A / Fold change vs veh, TTC7A / RFU, TMEM135 / Fold change vs veh, TMEM135 / RFU, DEPTOR / Fold change vs veh, DEPTOR / RFU, CPM / Fold change vs veh, CPM / RFU, DNAJB6 / Fold change vs veh, DNAJB6 / RFU, CACNA2D3 / Fold change vs veh, CACNA2D3 / RFU, DTX4 / Fold change vs veh, DTX4 / RFU, TFCP2 / Fold change vs veh, TFCP2 / RFU, GMCL1 /// GMCL1P1 / Fold change vs veh, GMCL1 /// GMCL1P1 / RFU, AEBP2 / Fold change vs veh, AEBP2 / RFU, SNHG1 /// SNORD22 /// SNORD25 /// SNORD26 /// SNORD27 /// SNORD28 /// SNORD29 /// SNORD31 / Fold change vs veh, SNHG1 /// SNORD22 /// SNORD25 /// SNORD26 /// SNORD27 /// SNORD28 /// SNORD29 /// SNORD31 / Fold change (Aza/veh), C12orf56 (ProbeSet 11735607_a_at) / Fold change (ACY-1035/veh), C12orf56 (ProbeSet 11735607_a_at) / Fold change (Aza/veh), FGFR1OP (ProbeSet 11751329_s_at) / Fold change (ACY-1035/veh), FGFR1OP (ProbeSet 11751329_s_at) / Fold change (Aza/veh), VPS36 (ProbeSet 11739960_a_at) / Fold change (ACY-1035/veh), VPS36 (ProbeSet 11739960_a_at) / RFU SYPL1 (11715823_x_at) / Fold change /veh SYPL1 (11715823_x_at) / RFU IGFBP7 (11715501_s_at) / Fold change /veh IGFBP7 (11715501_s_at) / RFU REEP3 (11722064_at) / Fold change /veh REEP3 (11722064_at) / RFU IGLL1 (11728026_x_at) / Fold change /veh IGLL1 (11728026_x_at): dose or concentration left out as unconfirmed
Details: ProbeSet 11716844_s_at; LIST D

## Nc1ccc(-c2cccs2)cc1NC(=O)c1ccc2c(c1)cc(C1CC1)n2CCN1CCOCC1 [ACY-1035]
  RFU, DNAJC13: 129.69 RFU

— publication PMC5218480 (PLoS ONE, 2017)
